This note sets out measurements from PubChem BioAssay (NCI).

Among the test systems are DLD-1 colon; DMS 114 small cell lung; MDA-MB-231 breast; MDA-N; PC-3 prostate; T-47D breast; P388 leukemia; P388/ADR leukemia; SN12K1 renal.
Common to all, as to assay: NCI tumour cell line growth inhibition, 48 h

Molecules are shown by their SMILES. “And” between values parts separate entries of the source, which are not always exact repeats. Equal entries are not always repeated.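 Growth conditions: 96-well plates. Treatment: test compound, 48 hours, 5 concentrations. Analysis: linear interpolation between bracketing concentrations; unreached endpoints set to highest concentration. GI50 marks 50% less growth. TGI denotes the concentration required for complete inhibition of growth.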 A value given as a limit tells only on which side of the number the result lay.

As for `CS(=O)(=O)Nc1ccc(Nc2c3ccccc3nc3ccccc23)cc1`, the TGI with DLD-1 colon is 24.7 µM; in the assay with DMS 114 small cell lung, 17 µM; in the assay with MDA-MB-231 breast it was 17.8 µM; in the assay on MDA-N, 37 µM; in the assay on PC-3 prostate it was 19.3 µM; in the assay on T-47D breast it was 21 µM.
As for `CC1C=CC(=O)C(n2cc(F)c(=O)[nH]c2=O)O1` (configuration not stated), the TGI in the assay with DLD-1 colon was 45.3 µM; in the assay on DMS 114 small cell lung, 31.5 µM.
The corresponding values for `CC1OC(OCC2COC(O)(Oc3c(-c4ccc(O)c(O)c4)oc4cc(O)cc(O)c4c3=O)C(O)C2O)C(O)C(O)C1O` (configuration not stated) are greater than 100 µM and greater than 100 µM.
The corresponding values for `CC12CCC[C@@](C)(C(=O)OC3OC(CO)C(O)C(O)C3O)[C@H]1CCC13CC4CC(OC4(CO)[C@H]1O)[C@@H]23` (some centres not stated) are greater than 100 µM and 87.9 µM.
For `O=[N+]([O-])c1nccn1COCCF` the same measures were greater than 100 µM and greater than 100 µM.
`COc1ccc(/C=C2\CCC(C)(CN(C)C)C2=O)cc1` (configuration not stated): the TGI in the assay on DLD-1 colon and in the assay with DMS 114 small cell lung was greater than 100 µM in each case.
As for `O=C(COc1ccccc1)NS(=O)(=O)c1ccccc1`, the TGI with DLD-1 colon and with DMS 114 small cell lung was greater than 100 µM throughout.
`CCOC(=O)c1cn(Cc2ccccc2)c(=O)n1Cc1ccccc1`: the TGI in the assay on DLD-1 colon and in the assay on DMS 114 small cell lung was greater than 100 µM in each case.
For the compound `CCOC(=O)/C(=C/c1ccc(C#N)cc1)N(CC)CC`, the TGI in the assay on DLD-1 colon and in the assay with DMS 114 small cell lung was greater than 100 µM in each case.
Consider `O=c1cnn2c(n1)sc1ccc3ccccc3c12`, for which the TGI with DLD-1 colon and in the assay on DMS 114 small cell lung was greater than 100 µM each time.
For `COc1ccc2c(c1)OC[C@@H]1c3cc4c(cc3O[C@H]21)OCO4`, the TGI with DLD-1 colon and with DMS 114 small cell lung was greater than 100 µM in each case.
`O=C(NO)C12C3C4C1C1C2C3C41C(=O)NO` (configuration not stated): the TGI in the assay with DLD-1 colon and in the assay with DMS 114 small cell lung was greater than 100 µM throughout.
With `NC1=N/C(=C2/CCNC(=O)c3[nH]c(Br)cc32)C(=O)N1`, the TGI was greater than 100 µM with DLD-1 colon; greater than 100 µM in the assay with DMS 114 small cell lung; 16.2 µM in the assay with MDA-MB-231 breast; greater than 43.3 µM with MDA-N; 86.1 µM in the assay on P388 leukemia; greater than 100 µM in the assay on P388/ADR leukemia. In addition, the TGI in the assay with PC-3 prostate was greater than 100 µM; in the assay on SN12K1 renal, greater than 100 µM; in the assay on T-47D breast, 51.8 µM.
In the case of `Cc1ccccc1CN1CC=c2ccccc2=N1`, the TGI in the assay with DLD-1 colon and in the assay with DMS 114 small cell lung was greater than 100 µM in each case.
Take `Cc1cc(Cl)cc2c1NC(=O)C2(O)C(C)C(=O)c1ccc(Cl)cc1` (configuration not stated): the TGI with DLD-1 colon is greater than 100 µM; in the assay with DMS 114 small cell lung, greater than 96.6 µM.
The corresponding values for `Cc1ccc(C)c(NC(=O)CC/C(=N\NC(=O)C(N)=O)C(C)C(=O)c2ccc(O)cc2)c1` (configuration not stated) are greater than 100 µM and greater than 100 µM.
In the case of `CO[C@@H]1[C@H](OC(=O)NC(=O)CCl)CC[C@]2(CO2)[C@H]1[C@@]1(C)O[C@@H]1CC=C(C)C`, the GI50 was 5.1 µM in the assay with DLD-1 colon; 2170 nM in the assay on DMS 114 small cell lung; 4.28 µM with MDA-MB-231 breast; 25.3 µM in the assay on PC-3 prostate; 4.03 µM with T-47D breast. Further, the TGI in the assay with DLD-1 colon is 42 µM; in the assay with DMS 114 small cell lung, 23.4 µM; in the assay on MDA-MB-231 breast it was 38.1 µM and 12.7 µM; in the assay with MDA-N, 27.3 µM; in the assay on PC-3 prostate it was 28.6 µM and 57.2 µM; in the assay with T-47D breast, 41.9 µM and 68.9 µM.
On to `OCC12C3C4C1C1C2C3C41CO` (configuration not stated), for which the TGI in the assay with DLD-1 colon and with DMS 114 small cell lung was greater than 100 µM in each case.
Consider `O=C1CCC2(CC1)SCCCS2`, for which the TGI in the assay on DLD-1 colon and in the assay on DMS 114 small cell lung was greater than 100 µM throughout.
Consider `CCCCCCCC/C=C\CCCCCCCC(=O)NCCN(CCN)C(=O)CCCCCCC/C=C\CCCCCCCC`, for which the TGI with DLD-1 colon and in the assay with DMS 114 small cell lung was greater than 100 µM throughout.
Consider `N#Cc1cc([N+](=O)[O-])ccc1NC(=O)C(=O)C(C(=O)/C=C/c1ccccc1)C1OC(=O)c2ccccc21` (configuration not stated), for which the TGI in the assay with DLD-1 colon and in the assay on DMS 114 small cell lung was greater than 100 µM each time.
As for `CC(C)(C)c1ccc(C(O)c2ccc(C(C)(C)C)cc2)cc1`, the TGI with DLD-1 colon came out at 28.3 µM; in the assay with DMS 114 small cell lung, 25.7 µM.
The corresponding values for `COc1ccc(C(c2c(O)c3ccccc3n(C)c2=O)c2c(O)c3ccccc3n(C)c2=O)cc1` are greater than 100 µM and greater than 100 µM.
With `CC(C)OP(=O)(OC(C)C)C(=Nc1ccccc1)NNc1ccc([N+](=O)[O-])cc1`, the TGI in the assay with DLD-1 colon was greater than 100 µM; with DMS 114 small cell lung it was 69.5 µM.
The corresponding values for `Nc1c(-c2ccc(Cl)cc2Cl)[n+]([O-])c2ccccc2[n+]1[O-]` are greater than 100 µM and greater than 100 µM.
Turning to `CC(C)(C)C(=O)C1CC(=O)c2ccccc2C1=O` (configuration not stated), the TGI with DLD-1 colon and in the assay on DMS 114 small cell lung was greater than 100 µM each time.
Take `c1ccc(CN(Cn2cccn2)Cn2cccn2)nc1`: the TGI in the assay with DLD-1 colon and in the assay on DMS 114 small cell lung was greater than 100 µM each time.
Consider `Cc1ccc(Cl)c(NC(=O)C(=O)C(C(=O)c2ccncc2)C2OC(=O)c3ccccc32)c1` (configuration not stated), for which the TGI in the assay on DLD-1 colon and in the assay on DMS 114 small cell lung was greater than 100 µM throughout.
On to `Cc1cc(Cl)ccc1N=C1NC(=O)C(CC(=O)Nc2ccc(Cl)cc2Cl)S1` (configuration not stated), for which the TGI in the assay on DLD-1 colon and with DMS 114 small cell lung was greater than 100 µM throughout.
As to `N#CCCN(c1ccc(-c2nnc(NC(=O)CNNC(=O)CC(=O)Nc3ccccc3)s2)cc1)S(=O)(=O)c1ccccc1`, the TGI in the assay on DLD-1 colon and in the assay with DMS 114 small cell lung was greater than 100 µM throughout.
On to `O=C(Nc1c(O)[nH]c(=S)[nH]c1=O)c1ccc2ccccc2n1`, for which the TGI in the assay on DLD-1 colon and in the assay on DMS 114 small cell lung was greater than 100 µM in each case.
